“And” between values parts separate entries of the source, which are not always exact repeats. Identical values can stand only once.
target: SARS-CoV-2 Main Protease (SARS-CoV-2) (UniProt P0DTD1)

Going from `Cc1ccncc1NC(=O)Cc1cc(Cl)cc(OCc2ncn[nH]2)c1` to `Cc1ccncc1NC(=O)Cc1cc(Cl)cc(OCc2ncc[nH]2)c1`, the IC50 rises from 37 µM to > 99.5 µM.

Going from `O=C(Cc1cc(Cl)cc(N2CCN(c3ccc(O)cc3)CC2)c1)Nc1cncc2ccccc12` to `C[C@H](Nc1cc(Cl)cc(CC(=O)Nc2cncc3ccccc23)c1)c1ccc([N+](=O)[O-])cc1` (stereo in doubt), the IC50 falls from 2.19 µM to 1.45 µM (1.5-fold). The second is the more potent here.

Compared with `O=C(Nc1n[nH]c2ccnc(Br)c12)C1CCOc2ccc(Cl)cc21` (stereo not given), `CNc1cncc(NC(=O)C2CCOc3ccc(Cl)cc32)c1C` (stereo not given) is lower in IC50: > 99.5 µM for the first, 32.3 µM for the second. The second is the more potent here.

Compared with `CC(C)c1cc(N(C(=O)c2ccco2)C(C(=O)NCCc2cccc(F)c2)c2cccnc2)ccc1C(F)(F)F` (stereo not given), `CC(C)(C)c1ccc(N(C(=O)c2cnco2)C(C(=O)NCCc2cccc(F)c2)c2cccnc2)cc1` (stereo not given) is lower in IC50: > 99.5 µM for the first, 4.78 µM for the second.

Going from `CNC(=O)CN1C[C@@H](C(=O)Nc2cncc3cccc(Cl)c23)c2cc(Cl)ccc2C1=O` (stereo in doubt) to `CC(C)(C)NC(=O)CN1CC(C(=O)Nc2cncc3ccccc23)c2cc(Cl)ccc2C1=O` (stereo not given), the IC50 falls from 14.6 µM to 0.523 µM (28-fold). The second is the more potent here.

First: Cc1cc(Nc2ccc3nc(C)sc3c2)n2ncnc2n1
Second: Cc1ccn2c(NC(=O)Cc3cccc(Cl)c3)cnc2c1
The IC50 of the first is higher: > 99.5 µM for the first, 19.6 µM for the second. The second is the more potent here.

First: C[C@@H]1NC(=O)c2ccc(Cl)cc2[C@@H]1C(=O)Nc1cncc2ccccc12 (stereo in doubt)
Second: CCC1(C(=O)Nc2cncc3ccccc23)CNC(=O)c2ccc(Cl)cc21 (stereo not given)
The IC50 of the first is 2.6-fold lower: 0.454 µM for the first, 1.18 µM for the second.

`CC[C@]1(c2ccc(Nc3cc(Cl)cc(CC(=O)Nc4cncc5ccccc45)c3)cc2)CCC(=O)NC1=O` (stereo in doubt) and `O=C(Cc1cc(Cl)cc(Nc2ccc(SC(F)(F)F)cc2)c1)Nc1cncc2ccccc12` are within 1.5-fold of each other in IC50: 1.91 µM for the first, 1.84 µM for the second.

Compared with `Cc1ccc(-c2ccc(C(=O)N3CC[C@H](N)C3)c(F)c2)cc1` (stereo in doubt), `O=C(c1cc(=O)[nH]c2ccccc12)N1CCN(c2ccc(F)cc2)CC1` is lower in IC50: > 99.5 µM for the first, 16.5 µM for the second. The second is the more potent here.

`O=C(Cc1cc(Cl)cc(N(C2CCCCC2)C2CCCCC2)c1)Nc1cncc2ccccc12` and `O=C(Cc1cc(Cl)cc(Nc2ccc3c(c2)OCCO3)c1)Nc1cncc2ccccc12` are within 1.5-fold of each other in IC50: 2.3 µM for the first, 2.12 µM for the second.

Compared with `O=C1CC2(CCOc3ccc(Cl)cc32)CN1c1cncc2ccccc12` (stereo not given), `Cc1cnn(C)c1C(=O)N1Cc2ccc(Cl)cc2C2(CCN(c3cncc4ccccc34)C2=O)C1` (stereo not given) is 9.9-fold lower in IC50: 6.74 µM for the first, 0.683 µM for the second. The second is the more potent here.

`COc1cc(OC)[n+](C)c(C#N)n1` and `Cc1cc(C)nc(C#N)n1` cannot be ordered by IC50: > 99.5 µM for the first, > 99.5 µM for the second.

`N#Cc1cc(CN2CCN(C(=O)CCl)CC2)c2ccccc2c1` and `O=C(CCl)N1CCN(Cc2cc(Cl)ccc2CNC(=O)N2CCOCC2)CC1` are within 1.5-fold of each other in IC50: 4.61 µM for the first, 3.8 µM for the second.

Compared with `O=C(c1cc(=O)[nH]c2ccccc12)N1CCN(c2cccc(C(F)(F)F)c2)CC1`, `O=C(Nc1cncc2ccccc12)C1CCCc2ccc(Cl)cc21` (stereo not given) is 12-fold lower in IC50: 3.8 µM for the first, 0.324 µM for the second.

First: CS(=O)(=O)Cc1ccc(N(C(=O)c2cnc[nH]2)C(C(=O)NCCc2cccc(F)c2)c2cccnc2)cc1 (stereo not given)
Second: O=C(NCCc1cccc(F)c1)C(c1cccnc1)N(C(=O)c1cocn1)c1ccc(-n2ccnc2)cc1 (stereo not given)
The IC50 of the first is lower: 41.1 µM for the first, > 99.5 µM for the second.

Going from `O=C(NC(c1ccccc1)c1ccccc1)[C@H]1CN(C(=O)CCl)CCN1S(=O)(=O)c1ccsc1` (stereo in doubt) to `Cc1ccc(S(=O)(=O)NC2CCN(C(=O)CCl)CC2)cc1`, the IC50 rises from 0.832 µM to 33.5 µM (40-fold).

Going from `O=C(NCc1ccc2c(c1)OCO2)c1nc(S(=O)(=O)Cc2ccccc2)ncc1Cl` to `CCOc1c(Cl)cccc1CC(=O)Nc1cncc2ccccc12`, the IC50 rises from 1.4 µM to 6.96 µM (5-fold).

Going from `CN(C)C(=O)CN1Cc2ccc(Cl)cc2C(C(=O)Nc2cncc3ccccc23)C1` (stereo not given) to `N#CC1(CS(=O)(=O)N2Cc3ccc(Cl)cc3C(C(=O)Nc3cncc4ccc(F)cc34)C2)CC1` (stereo not given), the IC50 falls from 0.896 µM to 0.137 µM (6.5-fold). The second is the more potent here.

Going from `O=C(CCl)N1CC2CC1CN2Cc1cccc(Cl)c1` (stereo not given) to `O=C(Cc1cccc(Cl)c1)Nc1cncc2cnoc12`, the IC50 rises from 2.17 µM to 23.9 µM (11-fold).

Compared with `O=C(Cc1cc(Cl)cc(NCc2ccc(Oc3ccccc3)cc2)c1)Nc1cncc2ccccc12`, `COc1ccc(Nc2cc(Cl)cc(CC(=O)Nc3cncc4ccccc34)c2)c([N+](=O)[O-])c1` is 2.7-fold lower in IC50: 5.82 µM for the first, 2.12 µM for the second.

Compared with `O=C(Cc1cccc(Cl)c1)Nc1cncc2[nH]ccc12`, `NC(=O)c1ccncc1NC(=O)Cc1cccc(Cl)c1` is higher in IC50: 6.19 µM for the first, > 99.5 µM for the second.

Going from `Cc1ccc(N(Cc2cscn2)C(=O)Cc2cncc3ccccc23)nc1` to `COc1ccccc1CC(=O)Nc1cncc2ccccc12`, the IC50 falls from > 99.5 µM to 35 µM.

`C=CC(=O)N(c1cc(C(C)(C)C)on1)C(C(=O)NC(C)(C)C)c1cccnc1` (stereo not given) and `Cc1ccncc1NC(=O)Cc1cc(Cl)cc(-c2ccc(S(C)(=O)=O)cc2Cl)c1` cannot be ordered by IC50: > 99 µM for the first, > 99.5 µM for the second.

Going from `O=C(Nc1cncc2cc(Cl)ccc12)C12CC(C1)Oc1ccc(Cl)cc12` to `CS(=O)(=O)c1ccc2c(NC(=O)C3CCS(=O)(=O)c4ccc(Cl)cc43)cncc2c1` (stereo not given), the IC50 falls from > 99.5 µM to 0.744 µM.

In the case of `CC(NCc1c[nH]c2nccnc12)c1cc(F)ccc1N1CCC(O)CC1` (stereo not given), the IC50 is reported as > 99.5 µM.

`O=C(Cc1ccc(Cl)c(Cl)c1)Nc1cncc2ccccc12` was tested, and the IC50 was 0.178 µM and 0.384 µM.
